The values that follow come from US20170165231A1, “TREATING EWING'S SARCOMA AND EWS-FLI1 RELATED DISORDERS” (STAR BIOTECHNOLOGY, LLC, priority 2012, published 2017).

Structures are written as SMILES. Like-named read-outs stand apart in the source and are kept apart here.

The conditions of series [1]: unformulated compound, background statement; cited from earlier work.
Series [2] has as its system TC71 Luc cells. The experiment in a line: TC71Luc Ewing's sarcoma xenograft murine model. Format: in vivo, mice. As to conditions: continuous and prolonged API administration. The text has this:
FIG. 3 (Smooth of Grouped-TC71 Luc Xenograft Animal Model) depicts data obtained from a TC71 Luc Ewing's sarcoma xenograft murine model for mice treated with the API in an EtOH (5%), PEG400 (40%), PBS formulation. The x-axis is time post-administration of the API in days with 0 being the first day of administration of API. The y-axis is tumor volume in mm^3.
Using a TC71Luc Ewing's sarcoma xenograft murine model, mice were subcutaneously injected with 1 million TC71 Luc cells. At a predetermined tumor volume (time=0), mice were given the first administration of API in an EtOH (5%), PEG400 (40%), PBS formulation. FIG. 3 depicts data obtained from control and for administration once per week (1×), three times per week (3×) and five times per week (5×) in each case at a dosage of 1.2 mg per mouse.

Details of series [3]: species or system CF1 mice. The settings on record: in vivo; for HL_Lambda_z: CF1, mouse. The text has this:
FIGS. 1A and 1B depict data of pharmacokinetic studies in CF1 mice with respect to administration of the API in the formulation shown in the Figures and via the route of administration shown in the Figures. […] In FIG. 1A group/dose=Group IV_IV_40; Rsq=0.9297; Rsq_adjusted=0.9062; HL_Lambda_z=4.7397 (hr); (5 points used in calculation); Uniform Weighting. […] In FIG. 1B group/dose=Group V_PO_40; Rsq=0.693; Rsq_adjusted=0.6163; HL_Lambda_z=2.0556 (hr); (6 points used in calculation); Uniform Weighting.
FIGS. 2A and 2B depict data of pharmacokinetic studies in CF1 mice with respect to administration of the API in the formulation shown in the Figures and via the route of administration shown in the Figures. […] In FIG. 2A dose/route=Group III_PO_150; Rsq=0.9685; Rsq_adjusted=0.9528; HL_Lambda_z=4.2505 (hr); (4 points used in calculation); Uniform Weighting. […] In FIG. 2B dose/route=Group VI_PO_400; Rsq=0.9971; Rsq_adjusted=0.9957; HL_Lambda_z=1.9461 (hr); (4 points used in calculation); Uniform Weighting.
Pharmacokinetics and bioavailability data was obtained from animal studies for a 50% PEG 400 plus 10% EtOH plus PBS formulation (Groups 1, 2 & 3) and a 40% PEG 400 plus 5% EtOH plus 18% TPGS plus PBS formulation (Groups 4, 5 & 6) and are shown below in Table 2.
The API was administered to CF1 mice. Blood was drawn from the mice at predetermined time intervals. Plasma was isolated from the blood and analyzed using LCMS to determine amounts of API (ng/mL). The data shown in FIG. 1A was obtained for IV administration of 40 mg/kg of API in a formulation containing 40% PEG400, 5% EtOH and 18% TPGS (d-alpha tocopheryl PEG1000 succinate). The data shown in FIG. 1B was obtained for PO administration of 40 mg/kg of API in a formulation containing 40% PEG400, 5% EtOH and 18% TPGS (d-alpha tocopheryl PEG1000 succinate). The data shown in FIG. 2A was obtained for PO administration of 150 mg/kg of API in a formulation containing 50% PEG400 and 10% EtOH. The data shown in FIG. 2B was obtained for PO administration of 400 mg/kg of API in a formulation containing 40% PEG400, 5% EtOH and 18% TPGS (d-alpha tocopheryl PEG1000 succinate). Time 0 in FIGS. 1A, 1B, 2A and 2B represent the time of administration of the API.

`COc1ccc(C(=O)CC2(O)C(=O)Nc3c(Cl)ccc(Cl)c32)cc1` (stereo not shown) [compound of Formula I, 4,7-Dichloro-1,3-dihydro-3-hydroxy-3[2-(4-methoxyphenyl)-2-oxoethyl]-2H-indol-2-one]: the solubility in water result in series [1] is reported as “highly insoluble”. The tumor abatement entry in series [2] is “increased tumor abatement”. Moreover, the HL_Lambda_z in series [3] (iv, 40 mg/kg) was found to be 4.7397 h; in series [3] (po, 40 mg/kg), 2.0556 h; in series [3] (po, 150 mg/kg), 4.2505 h; in series [3] (po, 400 mg/kg), 1.9461 h. Besides, the “clearance rate from plasma” value in series [3] (mouse) is reported as “rapid”.
